The values that follow come from US8163740B2, “6-substituted benzoxazines” (Hoffmann-La Roche Inc., priority 2008, dated 2012).

The target of one data set is recombinant human 5-HT5A receptor (Homo sapiens, UniProt P47898). The experiment in a line: [3H]LSD radioligand binding assay.
recombinant human 5-HT5A receptor, sequence (P47898 whole entry): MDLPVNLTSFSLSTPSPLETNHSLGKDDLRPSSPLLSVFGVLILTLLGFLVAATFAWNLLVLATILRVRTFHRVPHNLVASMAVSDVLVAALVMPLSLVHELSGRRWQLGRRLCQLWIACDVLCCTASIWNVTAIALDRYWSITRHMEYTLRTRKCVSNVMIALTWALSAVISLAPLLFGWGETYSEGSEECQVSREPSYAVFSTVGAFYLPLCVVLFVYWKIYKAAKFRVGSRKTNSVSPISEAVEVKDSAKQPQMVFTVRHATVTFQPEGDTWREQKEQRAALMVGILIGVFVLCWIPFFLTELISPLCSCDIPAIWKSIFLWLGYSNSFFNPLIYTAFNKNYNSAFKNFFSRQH
Conditions: not given
The procedure, abridged: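 Membranes from HEK-EBNA cells transiently expressing the receptor, with ~1 nM [3H]LSD in 50 mM Tris, 1 mM EGTA, 10 mM MgCl2, 10 μM pargyline, pH 7.4, SPA bead format. Incubated 120 min RT; nonspecific binding defined with 2 μM methiothepin. 10 concentrations in duplicate; IC50 converted to Ki via Cheng-Prusoff.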
On to `CN1C2COCC1CC(CC(=O)Nc1ccc3c(c1)COC(NC1CCc4ccccc41)=N3)C2` [Example 157, endo-N-[2-((R)-indan-1-ylamino)-4H-benzo[d][1,3]oxazin-6-yl]-2-(9-methyl-3-oxa-9-aza-bicyclo[3.3.1]non-7-yl)-acetamide], for which the inhibition constant (Ki) came to 2.98 nM.
Regarding `CN1C2COCC1CN(CC(=O)Nc1ccc3c(c1)COC(N[C@@H]1CCc4ccccc41)=N3)C2` [Example 159, N-[2-((R)-Indan-1-ylamino)-4H-benzo[d][1,3]oxazin-6-yl]-2-(9-methyl-3-oxa-7,9-diaza-bicyclo[3.3.1]non-7-yl)-acetamide], the inhibitory constant (Ki) is 18.9 nM.

The same data set, now with this note: [3H]LSD (approximately 1 nM); membranes from HEK-EBNA cells transiently expressing 5-HT5A; Ki by Cheng-Prussoff equation; read-out: Ki.
Regarding `COc1cccc2c1C(NC1=Nc3ccc(Br)cc3CO1)CO2` (racemic) [Example 54, rac-(6-Bromo-4H-benzo[d][1,3]oxazin-2-yl)-(4-methoxy-2,3-dihydro-benzofuran-3-yl)-amine], the Ki was determined as 125 nM.
For `COc1cccc2c1C(NC1=Nc3ccc(Br)cc3CO1)CC2` (racemic) [Example 74, rac-(6-Bromo-4H-benzo[d][1,3]oxazin-2-yl)-(7-methoxy-indan-1-yl)-amine], the Ki worked out at 13.8 nM.
As to `Cc1nnc(Nc2ccc3c(c2)COC(NC2CCc4cc(F)ccc42)=N3)o1` (racemic) [Example 106, rac-N^2-(5-Fluoro-indan-1-yl)-N^6-(5-methyl-[1,3,4]oxadiazol-2-yl)-4H-benzo[d][1,3]oxazine-2,6-diamine], the Ki was 2.94 nM.
In the case of `c1c[nH]c(CNc2ccc3c(c2)COC(NC2CCCCCC2)=N3)n1` [Example 105, N^2-Cycloheptyl-N^6-(1H-imidazol-2-ylmethyl)-4H-benzo[d][1,3]oxazine-2,6-diamine], the Ki was 31.6 nM.
As for `O=S(=O)(Nc1ccc2c(c1)COC(NCCOc1ccccc1)=N2)C1CC1` [Example 108, Cyclopropanesulfonic acid [2-(2-phenoxy-ethylamino)-4H-benzo[d][1,3]oxazin-6-yl]-amide], the Ki amounted to 29.1 nM.
Turning to `O=S(=O)(Nc1ccc2c(c1)COC(NCCOc1ccccc1)=N2)c1ccccc1` [Example 109, N-[2-(2-Phenoxy-ethylamino)-4H-benzo[d][1,3]oxazin-6-yl]-benzenesulfonamide], the Ki came out at 32.3 nM.
In the case of `CN(C)S(=O)(=O)Nc1ccc2c(c1)COC(NCCOc1ccccc1)=N2` [Example 110, N,N-(Dimethyl)-N′-{2-(2-Phenoxy-ethylamino)-4H-benzo[d][1,3]oxazin-6-yl}-sulfamide], the Ki came out at 24.1 nM.
With `COc1cccc2c1C(NC1=Nc3ccc(NC(=O)CN4CCN(C)C(CO)C4)cc3CO1)CC2` (stereo not shown) [Example 116, 2-(3-Hydroxymethyl-4-methyl-piperazin-1-yl)-N-[2-(7-methoxy-indan-1-ylamino)-4H-benzo[d][1,3]oxazin-6-yl]-acetamide], the inhibition constant (Ki) is 2.89 nM.
`N#Cc1ccc2c(c1)COC(N[C@@H]1CCc3ccccc31)=N2` [Example 117, 2-((R)-Indan-1-ylamino)-4H-benzo[d][1,3]oxazine-6-carbonitrile]: the Ki was 15.7 nM.
Same read-out and setting: to `Nc1ccc2c(c1)COC(Nc1cccc(C3CC3)c1)=N2` [Example 119, N^2-(3-Cyclopropyl-phenyl)-4H-benzo[d][1,3]oxazine-2,6-diamine] belongs 37.8 nM.
With `CN1CCN(CC(=O)Nc2ccc3c(c2)COC(NCCOc2ccccc2)=N3)CC1` [Example 122, 2-(4-Methyl-piperazin-1-yl)-N-[2-(2-phenoxy-ethylamino)-4H-benzo[d][1,3]oxazin-6-yl]-acetamide], the Ki is 5.11 nM.
As for `O=C(CN1CCOCC1)Nc1ccc2c(c1)COC(NCCOc1ccccc1)=N2` [Example 123, 2-Morpholin-4-yl-N-[2-(2-phenoxy-ethylamino)-4H-benzo[d][1,3]oxazin-6-yl]-acetamide], the Ki was determined as 41.4 nM.
Still for that read-out and setting: for `CC(C)N1CCC(NC(=O)Nc2ccc3c(c2)COC(NC2CCCCCC2)=N3)CC1` [Example 124, 1-(2-Cycloheptylamino-4H-benzo[d][1,3]oxazin-6-yl)-3-(1-isopropyl-piperidin-4-yl)-urea] the value was 3.32 nM.
For the molecule `c1cc(NC2=Nc3ccc(NCc4ncc[nH]4)cc3CO2)cc(C2CC2)c1` [Example 125, N^2-(3-Cyclopropyl-phenyl)-N^6-(1H-imdazol-2-ylmethyl)-4H-benzo[d][1,3]oxazine-2,6-diamine], the Ki turned out to be 37.2 nM.
For `CN1CCN(CC(=O)Nc2ccc3c(c2)COC(Nc2cccc(C4CC4)c2)=N3)CC1` [Example 126, N-[2-(3-Cyclopropyl-phenylamino)-4H-benzo[d][1,3]oxazin-6-yl]-2-(4-methyl-piperazin-1-yl)-acetamide], the Ki was found to be 37.7 nM.
In the case of `c1cc(NC2=Nc3ccc(NCc4nccs4)cc3CO2)cc(C2CC2)c1` [Example 127, N^2-(3-Cyclopropyl-phenyl)-N^6-thiazol-2-ylmethyl-4H-benzo[d][1,3]oxazine-2,6-diamine], the Ki came to 37.9 nM.
The same measure, in the same setting: for `O=C(Nc1ccc2c(c1)COC(Nc1cccc(C3CC3)c1)=N2)C1CC1` [Example 128, Cyclopropanecarboxylic acid [2-(3-cyclopropyl-phenylamino)-4H-benzo[d][1,3]oxazin-6-yl]-amide] the value was 23.5 nM; for `NCc1ccc2c(c1)COC(N[C@@H]1CCc3ccccc31)=N2` [Example 129, (6-Aminomethyl-4H-benzo[d][1,3]oxazin-2-yl)-(R)-indan-1-yl-amine], 13.3 nM.
With `CC1(C)Cc2cccc(NC3=Nc4ccc(NCc5ncc[nH]5)cc4CO3)c2O1` [Example 131, N^2-(2,2-Dimethyl-2,3-dihydro-benzofuran-7-yl)-N^6-(1H-imidazol-2-ylmethyl)-4H-benzo[d][1,3]oxazine-2,6-diamine], the inhibition constant (Ki) was 17.9 nM.
With `O=C(NCc1ccc2c(c1)COC(N[C@@H]1CCc3ccccc31)=N2)c1ccc(F)cc1` [Example 132, 4-Fluoro-N-[2-((R)-indan-1-ylamino)-4H-benzo[d][1,3]oxazin-6-ylmethyl]-benzamide], the Ki is 48 nM.
Take `C=Cc1ccc2c(c1)COC(N[C@@H]1CCc3ccccc31)=N2` [Example 134, (R)-Indan-1-yl-(6-vinyl-4H-benzo[d][1,3]oxazin-2-yl)-amine]: the Ki stood at 13.5 nM.
With `CN(C)S(=O)(=O)Nc1ccc2c(c1)COC(Nc1cccc(C3CC3)c1)=N2` [Example 135, N′-{2-[(3-cyclopropylphenyl)amino]-4H-benzo[d][1,3]oxazin-6-yl}-N,N-dimethylsulfamide], the Ki was found to be 71.7 nM.
Consider `c1ccc(CNc2ccc3c(c2)COC(Nc2cccc(C4CC4)c2)=N3)cc1` [Example 136, N^6-Benzyl-N^2-(3-cyclopropyl-phenyl)-4H-benzo[d][1,3]oxazine-2,6-diamine], for which the inhibition constant Ki came to 61.3 nM.
As for `CC(C)N1CCC(NC(=O)Nc2ccc3c(c2)COC(Nc2cccc(C4CC4)c2)=N3)CC1` [Example 137, 1-[2-(3-Cyclopropyl-phenylamino)-4H-benzo[d][1,3]oxazin-6-yl]-3-(1-isopropyl-piperidin-4-yl)-urea], the Ki was found to be 5.32 nM.
Turning to `CC(C)NC(=O)Nc1ccc2c(c1)COC(Nc1cccc3c1OC(C)(C)C3)=N2` [Example 139, 1-[2-(2,2-Dimethyl-2,3-dihydro-benzofuran-7-ylamino)-4H-benzo[d][1,3]oxazin-6-yl]-isopropyl-urea], the Ki came out at 241 nM.
Turning to `COCC1CN(CC(=O)Nc2ccc3c(c2)COC(NC2CCc4cccc(OC)c42)=N3)CCN1C` (stereo not shown) [Example 146, N-[2-(7-Methoxy-indan-1-ylamino)-4H-benzo[d][1,3]oxazin-6-yl]-2-(3-methoxymethyl-4-methyl-piperazin-1-yl)-acetamide], the Ki is 3.7 nM.
In the case of `COCC1CN(CC(=O)Nc2ccc3c(c2)COC(N[C@@H]2CCc4ccccc42)=N3)CCN1C` (stereo partly drawn) [Example 147, N-[2-((R)-Indan-1-ylamino)-4H-benzo[d][1,3]oxazin-6-yl]-2-(3-methoxymethyl-4-methyl-piperazin-1-yl)-acetamide], the Ki was found to be 3.55 nM.
Regarding `O=S(=O)(Nc1ccc2c(c1)COC(Nc1cccc(C3CC3)c1)=N2)C1CC1` [Example 149, Cyclopropanesulfonic acid [2-(3-cyclopropyl-phenylamino)-4H-benzo[d][1,3]oxazin-6-yl]-amide], the Ki was 138 nM.
`O=S(=O)(Nc1ccc2c(c1)COC(Nc1cccc(C3CC3)c1)=N2)c1ccccc1` [Example 150, N-[2-(3-Cyclopropyl-phenylamino)-4H-benzo[d][1,3]oxazin-6-yl]-benzenesulfonamide]: the inhibitory constant (Ki) was 299 nM.
Regarding `CC(C)NC(=O)Nc1ccc2c(c1)COC(Nc1cccc(C3CC3)c1)=N2` [Example 151, 1-[2-(3-Cyclopropyl-phenylamino)-4H-benzo[d][1,3]oxazin-6-yl]-3-isopropyl-urea], the Ki was 114 nM.
As for `c1ccc2c(c1)CC[C@H]2NC1=Nc2ccc(C3CC3)cc2CO1` [Example 152, (6-Cyclopropyl-4H-benzo[d][1,3]oxazin-2-yl)-(R)-indan-1-yl-amine], the Ki is 27.3 nM.
For `Nc1ccc2c(c1)COC(NC1CCCCCCC1)=N2` [Example 153, N^2-Cyclooctyl-4H-benzo[d][1,3]oxazine-2,6-diamine], the Ki is 11.9 nM.
As for `CC(C)NC(=O)Nc1ccc2c(c1)COC(NC1CCCCCC1)=N2` [Example 154, 1-(2-Cycloheptylamino-4H-benzo[d][1,3]oxazin-6-yl)-3-isopropyl-urea], the Ki came out at 1.86 nM.
With `O=C(Nc1ccc2c(c1)COC(NC1CCCCCCC1)=N2)C1CC1` [Example 155, Cyclopropanecarboxylic acid (2-cyclooctylamino-4H-benzo[d][1,3]oxazin-6-yl)-amide], the Ki was 1.3 nM.
For the molecule `CN1CCN(CC(=O)Nc2ccc3c(c2)COC(NC2CCCCCCC2)=N3)CC1` [Example 156, N-(2-Cyclooctylamino-4H-benzo[d][1,3]oxazin-6-yl)-2-(4-methyl-piperazin-1-yl)-acetamide], the inhibitory constant (Ki) is 2.16 nM.

System in a further data set: not given
Assay: not given
Conditions: not given
The molecule `COc1cccc2c1C(NC1=Nc3ccc(Br)cc3CO1)CO2` (racemic) [Example 54, rac-(6-Bromo-4H-benzo[d][1,3]oxazin-2-yl)-(4-methoxy-2,3-dihydro-benzofuran-3-yl)-amine] yielded a melting point of 132.5 °C.
In the case of `COc1cccc2c1C(NC1=Nc3ccc(Br)cc3CO1)CC2` (racemic) [Example 74, rac-(6-Bromo-4H-benzo[d][1,3]oxazin-2-yl)-(7-methoxy-indan-1-yl)-amine], the melting point worked out at 151 °C.
As to `Cc1nnc(Nc2ccc3c(c2)COC(NC2CCc4cc(F)ccc42)=N3)o1` (racemic) [Example 106, rac-N^2-(5-Fluoro-indan-1-yl)-N^6-(5-methyl-[1,3,4]oxadiazol-2-yl)-4H-benzo[d][1,3]oxazine-2,6-diamine], the melting point was found to be 121 °C.
